Data taken from patent US20180118699A1, “SK AND IK CHANNEL AGONISTS FOR TREATMENT OF HEART FAILURE” (THE TRUSTEES OF COLUMBIA UNIVERSITY IN THE CITY OF NEW YORK, priority 2015, published 2018).
Like-named read-outs stand apart in the source and are kept apart here.

Tests used:
[1] = tested on: mesenteric resistance vessels; assay: Dilation of cannulated mesenteric resistance vessels
Protocol: Vessels were mounted onto cannulas and equilibrated at 80 mm Hg. […] The vessels were continuously constricted with 1 μM phenylephrine. […] At the conclusion of the experiment, the vessels were superfused in a Ca^2+-free solution to determine maximal dilation. Data shown are mean+s.e.m., relative to maximal dilation determined in Ca^2+-free solution. N=4.

[2] = target: T1, human KCNN3 (SK3) (Homo sapiens, UniProt P0DP23+Q9UGI6); assay: Whole-cell patch clamp of KCa potassium channel activator activity in transfected HEK293 cells; format: cell-based; details: HEK293 SK3 whole-cell currents
T1 construct: GFP; expressed in transfected cells; host or cells: HEK293
Source text: Currents were activated by 200 msec depolarizing ramps between −120 mV and +30 mV, from a holding potential of −90 mV, and then deactivated by repolarization to the holding potential. […] Colored bars indicate application of the XX-03-64 and XX-03-56 agonists.
Currents were activated by 200 msec depolarizing ramps between −120 mV and +30 mV, from a holding potential of −90 mV, and then deactivated by repolarization to the holding potential. Voltage ramps were applied every 5 seconds. The bath solution was 140 mM NaCl, 4 mM KCl, 0.1 mM CaCl2, 3 mM Mg Cl2, 10 mM HEPES (pH 7.4) and the pipette solution was 150 mM KCl, 5 mM TES (pH 7.2), 2 mM HEDTA, and 1 μM free Ca^2+. The free Ca^2+ concentration was calculated using the Max Chelator program and confirmed using a Ca^2+ electrode (Orion). Agonists were superfused in the bath solution.

[3] = cited from earlier work; for lowering of mean arterial pressure: 30 mg/kg
[4] = rats; cited from earlier work
[5] = tested on: SK channels; details: cited from earlier work
[6] = cited from earlier work
[7] = IV bolus in mouse with systolic heart failure, left ventricular pressure-volume recording; format: in vivo; details: IV bolus 3 mg/kg, wildtype mouse with heart failure (FAC 38%)
Protocol: (§1) FIG. 22 depicts data of a wildtype mouse with heart failure (FAC 38%) given an IV bolus of SKA-31 (3 mg/kg) through the left internal jugular vein during simultaneous recording of left ventricular pressure and volume using a Milar conductance catheter inserted through the right carotid artery.
as §1, with “In this experiment,” for “FIG. 22 depicts data of”, “38%) was” for “38%)”, “artery. (FIG. 22)” for “artery.”
BK channel deficient mice and wildtype littermates developed an ischemic cardiomyopathy after surgical ligation of the left anterior descending coronary artery. Systolic heart failure was confirmed six weeks later by noting a fractional area of change (FAC) of 40% or lower on 2D echocardiography (Visualsonics Vevo 2100). […] Continuous LV pressure and volume measurements were recorded (MPVS Ultra by Milar with PowerLab 4/35 and LabChart by ADInstruments). After stable baseline LV measurements were recorded, vehicle (Cremophor EL made by Calbiochem) was infused intravenously into the cannulated internal jugular vein as a single bolus in the same volume later used to deliver an intravenous bolus of SKA-31 (Tocris) at 3 mg/kg. […]

[8] = mice; cited from earlier work
[9] = tested on: SK3 and IK1 channels; assay: Electrophysiology of freshly isolated mesenteric endothelial cells; format: cell-based, mice
Source text: FIGS. 18A-18D collectively are graphs showing electrophysiological characterization of SK channels in freshly isolated mesenteric endothelial cells.
Endothelial cells were isolated from third-order mesenteric arteries of mice using enzymatic digestion followed by labeling the endothelial cells with CD34 antibody-labeled magnetic beads, collecting them using a magnet and then releasing them from the beads by competition. To measure both SK3 and IK1 currents, the cells were dialyzed with KCl-solution containing 3 μM free Ca^2+ and currents elicited using voltage ramps and by the activator NS-309 (see FIGS. 18A-18B).

[10] = target: T2, BK channels (Mus musculus, UniProt Q08460); assay: Myogenic tone of pressurized mesenteric arteries with BK channel blocker; parameters: species or system mice; details: for increase of constriction: 120 mm Hg
T2 construct: from tissue; host or cells: third-order mesenteric resistance arteries of mice (sham and heart failure)
Protocol: FIG. 11A is a graph showing the effect of paxilline on myogenic tone measured at 120 mm Hg. Constriction induced by paxilline was calculated as the difference between myogenic tone (%) pre- and post-paxilline. Mean+s.e.m. No heart failure (no HF): N=6 vessels; heart failure (HF): N=5 vessels. ** P<0.01, Student's t test. FIG. 11B is a graph showing that myogenic tone is equivalent in paxilline-treated vessels from control mice and mice with heart failure. Mean+s.e.m. No HF: N=6 vessels; HF: N=5 vessels.
If HF alters myogenic tone by reducing BK channel expression and currents, then the effect of paxilline should be reduced. […] Inhibiting BK channels with paxilline in sham-treated (no HF) control mice caused an increase in myogenic tone, approximating the increased myogenic tone of vessels isolated from HF mice (see FIG. 11B).

[11] = two hours after IP injection of 100 μg (5 μg/g); cited from earlier work
[12] = cited from earlier work; remark: listed apart in the source
[13] = target: T2, BK channels; assay: Whole cell K+ currents in freshly isolated mesenteric VSM cells; format: cell-based, mice; details: control VSM cells, 2 μM Ang II
Protocol: Whole cell K^+ currents at baseline (black trace) and after exposure to 1 μM paxilline (red trace in FIG. 14A) or 2 μM Ang II (blue trace in FIG. 14B). The intrapipette solution contained 9 μM Ca^2+.
Conversely, Ang II (2 μM) or phenylephrine (10 μM) may differentially modulate channel function in VSM cells isolated from HF mice. Ang II inhibits BK channel function through its effects on PKC, c-Src and Nox (Lu et al. 2010). Ang II causes less inhibition if BK channels are already modified by PKC, c-Src or Nox pathways, as compared to the effect on BK channels from control VSM cells, in which Ang II suppressed BK current by 50% (see FIG. 14B).
Two determinants of BK activity are used: STOCs and whole-cell current density. BK currents are a very large fraction of the total K^+ currents in freshly isolated mesenteric VSM cells (see FIG. 14A). […] PKCα and PKCδ may be the relevant PKC isoforms, which are further delineated using specific inhibitors.

[14] = mesenteric arteries from HF mice
[15] = mesenteric arteries from mice without HF

T2 sequence (Q08460 whole entry): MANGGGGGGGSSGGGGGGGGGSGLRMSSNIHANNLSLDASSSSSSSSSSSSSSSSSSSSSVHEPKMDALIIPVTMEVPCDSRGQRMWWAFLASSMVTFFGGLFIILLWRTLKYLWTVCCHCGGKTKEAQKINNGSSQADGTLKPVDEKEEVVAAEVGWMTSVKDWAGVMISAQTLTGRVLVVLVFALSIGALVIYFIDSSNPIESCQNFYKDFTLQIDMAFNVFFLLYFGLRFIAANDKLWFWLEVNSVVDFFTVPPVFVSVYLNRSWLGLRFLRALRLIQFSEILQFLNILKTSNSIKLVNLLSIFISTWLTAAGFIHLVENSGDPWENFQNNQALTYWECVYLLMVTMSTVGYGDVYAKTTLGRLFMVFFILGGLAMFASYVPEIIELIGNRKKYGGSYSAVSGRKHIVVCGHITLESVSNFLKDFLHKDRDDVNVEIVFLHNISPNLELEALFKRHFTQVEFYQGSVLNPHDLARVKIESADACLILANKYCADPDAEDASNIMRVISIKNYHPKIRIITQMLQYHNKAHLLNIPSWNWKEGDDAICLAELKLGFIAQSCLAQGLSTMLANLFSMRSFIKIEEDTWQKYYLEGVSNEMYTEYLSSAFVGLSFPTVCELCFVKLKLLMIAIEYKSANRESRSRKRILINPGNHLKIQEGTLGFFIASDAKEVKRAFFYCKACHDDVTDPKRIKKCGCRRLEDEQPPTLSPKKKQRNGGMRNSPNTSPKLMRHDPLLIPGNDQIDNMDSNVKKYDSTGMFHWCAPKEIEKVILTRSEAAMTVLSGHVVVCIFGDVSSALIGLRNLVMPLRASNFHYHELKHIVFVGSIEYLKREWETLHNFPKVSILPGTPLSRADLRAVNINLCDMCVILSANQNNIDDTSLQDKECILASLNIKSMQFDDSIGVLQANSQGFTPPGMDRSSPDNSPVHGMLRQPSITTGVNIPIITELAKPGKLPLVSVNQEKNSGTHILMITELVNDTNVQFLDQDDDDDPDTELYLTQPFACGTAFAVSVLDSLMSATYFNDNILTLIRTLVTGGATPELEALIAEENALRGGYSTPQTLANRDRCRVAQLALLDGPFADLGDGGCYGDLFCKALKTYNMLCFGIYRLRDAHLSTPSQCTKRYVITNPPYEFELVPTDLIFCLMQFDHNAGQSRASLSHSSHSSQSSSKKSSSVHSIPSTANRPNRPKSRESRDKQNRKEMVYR
T2 sequence (Q8CAE3 whole entry partner): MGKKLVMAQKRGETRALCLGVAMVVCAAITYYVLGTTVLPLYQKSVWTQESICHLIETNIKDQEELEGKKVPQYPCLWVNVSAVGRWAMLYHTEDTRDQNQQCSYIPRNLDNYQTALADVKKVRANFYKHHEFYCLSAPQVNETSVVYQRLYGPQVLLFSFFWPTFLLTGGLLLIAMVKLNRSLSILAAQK

With `Clc1ccccc1C(c1ccccc1)(c1ccccc1)n1cccn1` [TRAM-34] the “effect on SKA-31 (1 μM)-mediated vasodilation” value ([1]; intraluminal 1 μM TRAM-34 and 100 nM apamin together, phenylephrine-constricted vessels) was “prevented”.
With `COc1ccc2c(ccc3sc(N)nc32)c1` [XX-03-52] the “Note: rank of activity” value [2] was 2nd most active.
In the case of `Nc1nc2c(ccc3cc(Cl)ccc32)s1` [XX-03-56], the “Note: rank of activity” value [2] is reported as “Most active”.
In the case of `Nc1nc2c(ccc3ccccc32)s1` [XX-03-58, naphtha[1,2-d]thiazol-2-ylamine], the “lowering of mean arterial pressure” value ([3]; mice with hypertension) is listed as 12 mm Hg, the “lowering of mean arterial pressure” value ([3]; normal mice) is listed as 6 mm Hg and the “lowering of blood pressure” value ([3]; single IP injection 10 mg/kg, at 24 h) is listed as 4 mm Hg. For the same compound, the acute toxicity [4] was “no acute toxicity”, the “EC50 of SK channel activation” value [5] was “low μM range” and the dilation of vessels ([1]; intraluminal 250 nM or 1 μM, vessels of control mice and mice with HF) was “effectively dilated the vessels”. The dilation of vessels ([1]; phenylephrine-constricted vessels of BK β1 null mice) was “caused dilatation of vessels from β1 null mice to a similar extent as vessels from WT mice”, the free plasma level ([6]; 10 mg/kg IP, 24 h) was 300 nM and the plasma concentration ([6]; 10 mg/kg IP, mice, 2 h) was 5.5 µM. For the same compound, the plasma concentration ([6]; 10 mg/kg IP, mice, 4 h) was 1.4 µM, the plasma concentration ([6]; 10 mg/kg IP, mice, 24 h) was 0.5 µM and the free in plasma ([6]; mice) was 61%. For the same compound, the plasma protein-bound ([6]; mice) was 39%, the cardiac work [7] was “improves cardiac work” and the acute toxicity [8] was “no acute toxicity”.
With `Cc1ccc2ccc3sc(N)nc3c2c1` [XX-03-64] the “Note: rank of activity” value [2] was “least active”.
For `C[N+](C)(C)CCOC(N)=O` [carbachol], the “endothelial cell membrane potential” value ([9]; carbachol 2 μM) was “hyperpolarization of endothelial cell membrane potential”.
In the case of `CC(C)(O)[C@H]1O[C@H]2CC[C@@]3(C)[C@@](O)(CC[C@H]4Cc5c([nH]c6ccccc56)[C@@]43C)C2=CC1=O` [paxilline], the “relative increase in myogenic tone” value [10, 14] is reported as 3%, the increase of constriction [10, 14] is reported as 0.9% and the “relative increase in myogenic tone” value [10, 15] is reported as 51.9%. It also gave an increase of constriction [10, 15] of 10.9%.
In the case of `CC(=O)c1c(O)c(C)c(O)c(Cc2c(O)c3c(c(C(=O)/C=C/c4ccccc4)c2O)OC(C)(C)C=C3)c1O` [rottlerin, Rottlerin], the plasma level [11] is given as 2.9 µg/mL.
In the case of NS-309, the half-life [12] is listed as “extremely short half-life”, the “activation of SK/IK channels” value ([9]; 5 μM NS-309) is listed as “reversible NS-309 (5 μM) activation of SK/IK channels” and the “endothelial cell membrane potential” value ([9]; NS309) is listed as “caused hyperpolarization of the endothelial cell membrane potential”.
With “angiotensin II (DRVYIHPF; Angiotensin-2; UniProt P01019 25-32, looked up) [Ang II, circulating angiotensin II]” the “suppression of BK current” value [13] was 50%.
